# According to patent US12122783B2, “Stable salt of 5,10-methylene-(6R)-tetrahydrofolic acid” (MERCK & CIE, priority 2013, dated 2024):
# Where a name gives a salt, the structure may show the parent alone.
# Legend:
# [1] = Stability in 85% ethanol at room temperature (XRPD); type: physicochemical; settings: 85% EtOH, stirred 5 h, filtered and dried
# Method: (§1) Powder X-Ray Diffraction (Bruker D8 Advance): Copper Kα radiation, 40 kV/40 mA, LynxEye detector, Bragg-Brentano reflection geometry, 0.02° 2θ step size, 37 s step time, 2.5-50° 2θ range. Powder samples were measured in 0.1-mm or 0.5-mm deep silicon single-crystal sample holders. No special treatment was used in preparing the samples other than the application of slight pressure to get a flat surface. An ambient air atmosphere was used for all measurements, and the samples were rotated during the measurement. Absent any information to the contrary X-Ray Diffraction data is shown as reflection data.
# • (b) Stability in 85% ethanol at room temperature
# (§2) (6R)-5,10-CH2-THF hemisulfate salt (3.01 g) was dispersed in 100 ml 85% EtOH at room temperature and stirred for 5 h, then filtered and dried at 30° C. and 8 mbar for 12 hours (over night).
# [2] = Stability at high temperature/low pressure (XRPD); type: physicochemical; settings: drying chamber 65 °C, 8 mbar, 21 h
# Method: as §1, §2
# (6R)-5,10-CH2-THF hemisulfate salt (2.17 g) was placed in a drying chamber at 65° C. and 8 mbar for 21 h.
# [3] = Long-term stability of hemisulfate salt stored in air, content by HPLC; type: physicochemical; settings: for (6R)-5,10-CH2-THF hemisulfate remaining: solid, air, 25 °C/60% relative humidity
# Method: In order to determine the long-term stabilities of (6R)-5,10-CH2-THF hemisulfate salt, the compounds of the invention were stored in air at 25° C. and at 60% relative humidity. The content of (6R)-5,10-CH2-THF hemisulfate salt remaining was measured by HPLC at periodic intervals and is given by comparison with the initial value (% rel.).
# [4] = Long-term stability of lyophilisates stored in air, content by HPLC; type: physicochemical; settings: room temperature, pharmaceutical composition such as a lyophilisate
# Method: In order to determine the long-term stabilities of (6R)-5,10-CH2-THF hemisulfate salt as pharmaceutical compositions, more specifically as lyophilisates (as prepared according to e.g. Example 5), lyophilisates were stored in air at 25° C. and at 60% relative humidity. The content of (6R)-5,10-CH2-THF hemisulfate salt remaining was measured by HPLC at periodic intervals and is given by comparison with the initial value (% rel.).
# [5] = Comparative long-term stability of sulfate salt, content by HPLC; type: physicochemical; settings: comparison of Tables 13 and 14 with Example 3
# Method: In order to compare the long-term stabilities of (6R)-5,10-CH2-THF hemisulfate salt, the compounds of the invention, to the long-term stabilities of (6R)-5,10-CH2-THF sulfate salt prepared according to EP 0 537 492 B1, stability data for (6R)-5,10-CH2-THF sulfate salt has been generated at various temperatures and humidities. • (a) Stability of (6R)-5,10-CH2-THF sulfate
# (6R)-5,10-CH2-THF sulfate salt was prepared according to literature procedures (EP 0 537 492 B1) and stored for 15 month at −20° C. Subsequently, samples of the product were stored at 5° C. resp. at 25° C. and 60% relative humidity resp. at 40° C. and 75% relative humidity. The content of (6R)-5,10-CH2-THF sulfate salt remaining in the sample was measured by HPLC at periodic intervals. The content of (6R)-5,10-CH2-THF sulfate was compared to the initial value at the time of preparation (% rel.).
# rats = settings: rat, in vivo, 100 mg/kg/day
# patients = test: Clinical safety data in patients; type: in vivo; settings: doses of up to 200 mg/m^2
# [6] = Phase I/II study ISO-CC-002, pharmacokinetics/pharmacodynamics versus Levoleucovorin in tumor tissue, adjacent mucosa and blood plasma; type: in vivo; settings: colon cancer patients
# Method: (b) In a single-blinded, randomized phase I/II study (ISO-CC-002) performed on 32 patients diagnosed with colon cancer the pharmacokinetic and pharmacodynamic properties of (6R)-5,10-CH2-THF hemisulfate compared to Levoleucovorin in tumor tissue, adjacent mucosa and blood plasma were investigated. The study was performed at the Sahlgrenska University Hospital in Göteborg, Sweden. […] The concentrations of methylenetetrahydrofolate and tetrahydrofolate in both tumor and adjacent mucosa were also much higher after administration of (6R)-5,10-CH2-THF hemisulfate than those obtained after administration of Levoleucovorin.
# [7] = TG-FTIR thermogram under N2 flow; type: physicochemical; settings: 10 K min^−1
# Method: TG-FTIR (Netzsch Thermo-Microbalance TG 209 with Bruker FT-IR Spectrometer IFS 28): Al crucible (with microhole); N2 atmosphere; 10 K min^−1 heating rate; 25° C. to 300° C. range.
# • (a) The FT Raman spectrum of (6R)-5,10-CH2-THF hemisulfate salt, recorded using a nominal laser power level of 300 mW and 64 scans is shown in FIG. 1. • (b) The corresponding powder X-ray diffractogram, recorded in transmission mode, is shown in FIG. 2. • (c) The TG-FTIR thermogram of (6R)-5,10-CH2-THF hemisulfate salt is shown in FIG. 3. It was carried out under N2 flow (to avoid oxidative degradation). […] Prior to the first heating scan, the sample was equilibrated for three minutes under gaseous nitrogen flow and lost 0.6 wt.-% of its mass during that time. This is consistent with the water content observed in the TG-FTIR thermogram (see FIG. 3) and confirms that this water is loosely bound. The sample was subsequently heated in a closed gold crucible to 254° C. at 10 K min^−1, quench cooled to −50° C., and heated a second time at 10 K min^−1. […] No other thermal events were observed up to 250° C. • (e) The IR spectrum was recorded in a pressed KBr pellet and the characteristic absorption bands are shown in Table 3. • (f) The ^1H NMR spectrum of (6R)-5,10-CH2-THF hemisulfate salt was recorded in DMSO-d6 and the chemical shifts (d) in ppm are shown in Table 8.
smiles,measurement,setting,value
"Nc1nc2c(c(=O)[nH]1)N1CN(c3ccc(C(=O)N[C@@H](CCC(=O)O)C(=O)O)cc3)C[C@H]1CN2 [(6R)-5,10-CH2-THF hemisulfate salt, 5,10-methylene-(6R)-tetrahydrofolic acid]",X-ray pattern distinctive for crystal form Type 1,[1],remained unchanged
same,X-ray pattern distinctive for crystal form Type 1,[2],remained unchanged
same,Stability over a long period of time (conclusion from Table 11),"[3]; room temperature, pure compound",highly stable
same,"(6R)-5,10-CH2-THF hemisulfate remaining",[3]; 0 months,100.0 % rel.
same,"(6R)-5,10-CH2-THF hemisulfate remaining","[3]; 3 months, listed as (6R)-5,10-CH2-THF hemisulfate (batch 1)",99.7 % rel.
same,"(6R)-5,10-CH2-THF hemisulfate remaining","[3]; 3 months, listed as (6R)-5,10-CH2-THF hemisulfate (batch 2)",99.9 % rel.
same,"(6R)-5,10-CH2-THF hemisulfate remaining","[3]; 3 months, listed as (6R)-5,10-CH2-THF hemisulfate (batch 3)",99.5 % rel.
same,"(6R)-5,10-CH2-THF hemisulfate remaining",[3]; 6 months,99.5 % rel.
same,"(6R)-5,10-CH2-THF hemisulfate remaining","[3]; 6 months, listed as (6R)-5,10-CH2-THF hemisulfate (batch 2)",99.9 % rel.
same,"(6R)-5,10-CH2-THF hemisulfate remaining","[3]; 9 months, listed as (6R)-5,10-CH2-THF hemisulfate (batch 1)",99.6 % rel.
same,"(6R)-5,10-CH2-THF hemisulfate remaining","[3]; 9 months, listed as (6R)-5,10-CH2-THF hemisulfate (batch 2)",100.0 % rel.
same,"(6R)-5,10-CH2-THF hemisulfate remaining","[3]; 9 months, listed as (6R)-5,10-CH2-THF hemisulfate (batch 3)",99.4 % rel.
same,"(6R)-5,10-CH2-THF hemisulfate remaining","[3]; 12 months, listed as (6R)-5,10-CH2-THF hemisulfate (batch 1)",99.2 % rel.
same,"(6R)-5,10-CH2-THF hemisulfate remaining","[3]; 12 months, listed as (6R)-5,10-CH2-THF hemisulfate (batch 2)",99.7 % rel.
same,"(6R)-5,10-CH2-THF hemisulfate remaining","[3]; 12 months, listed as (6R)-5,10-CH2-THF hemisulfate (batch 3)",99.1 % rel.
same,"(6R)-5,10-CH2-THF hemisulfate remaining","[3]; 18 months, listed as (6R)-5,10-CH2-THF hemisulfate (batch 1)",99.2 % rel.
same,"(6R)-5,10-CH2-THF hemisulfate remaining","[3]; 18 months, listed as (6R)-5,10-CH2-THF hemisulfate (batch 2)",99.4 % rel.
same,"(6R)-5,10-CH2-THF hemisulfate remaining","[3]; 18 months, listed as (6R)-5,10-CH2-THF hemisulfate (batch 3)",99.0 % rel.
same,"(6R)-5,10-CH2-THF hemisulfate remaining","[3]; 24 months, listed as (6R)-5,10-CH2-THF hemisulfate (batch 1)",99.4 % rel.
same,"(6R)-5,10-CH2-THF hemisulfate remaining","[3]; 24 months, listed as (6R)-5,10-CH2-THF hemisulfate (batch 2)",99.4 % rel.
same,"(6R)-5,10-CH2-THF hemisulfate remaining","[3]; 24 months, listed as (6R)-5,10-CH2-THF hemisulfate (batch 3)",99.0 % rel.
same,"(6R)-5,10-CH2-THF hemisulfate remaining","[3]; 36 months, listed as (6R)-5,10-CH2-THF hemisulfate (batch 1)",98.5 % rel.
same,"(6R)-5,10-CH2-THF hemisulfate remaining","[3]; 36 months, listed as (6R)-5,10-CH2-THF hemisulfate (batch 2)",99.0 % rel.
same,Stability over a long period of time (conclusion from Table 12),[4],highly stable
same,"Stability over a long period of time compared to (6R)-5,10-CH2-THF sulfate",[5],much more stable
same,Safety at highest dose-level administered,rats,safe
same,Safety for patients,patients,safe
same,Exposure of methylenetetrahydrofolate compared to Levoleucovorin,[6]; blood plasma,substantially greater
same,Peak plasma concentrations of methylenetetrahydrofolate compared to Levoleucovorin,[6]; blood plasma,substantially greater
same,Concentration of methylenetetrahydrofolate compared to Levoleucovorin,[6]; both tumor and adjacent mucosa,much higher
same,Concentration of tetrahydrofolate compared to Levoleucovorin,[6]; both tumor and adjacent mucosa,much higher
same,Decomposition temperature (TG-FTIR),[7],above 210 °C
